Reference: ChEMBL document CHEMBL1201862, “PubChem BioAssay data set” (2004)
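Briefly, cells in 96-well plates were exposed to five compound concentrations for 48 h, and endpoints were estimated by linear interpolation. Abbreviation: GI50, concentration required for 50% inhibition of growth.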 The source made the active and inactive calls. Cut-off read from the data, not from the text of the source: active = GI50 up to about 1.1 µM and inactive = higher.

Assays:
Assay in all cases: NCI anticancer screen, dose series, 48 h
[1] = test system: 786-0
[2] = test system: A498
[3] = test system: A549
[4] = test system: ACHN
[5] = test system: BT-549
[6] = test system: CAKI-1
[7] = test system: CCRF-CEM
[8] = test system: COLO 205
[9] = test system: DU-145
[10] = test system: EKVX
[11] = test system: HCC 2998
[12] = test system: HCT-116
[13] = test system: HCT-15
[14] = test system: HL-60
[15] = test system: HOP-62
[16] = test system: HOP-92
[17] = test system: HT-29
[18] = test system: Hs-578T
[19] = test system: IGROV-1
[20] = test system: K562
[21] = test system: KM12
[22] = test system: LOX IMVI
[23] = test system: M14
[24] = test system: MCF7
[25] = test system: MDA-MB-231
[26] = test system: MDA-MB-435
[27] = test system: MDA-N
[28] = test system: MOLT-4
[29] = test system: Malme-3M
[30] = test system: NCI-H226
[31] = test system: NCI-H23
[32] = test system: NCI-H460
[33] = test system: NCI-H522
[34] = test system: NCI/ADR-RES
[35] = test system: OVCAR-3
[36] = test system: OVCAR-4
[37] = test system: OVCAR-5
[38] = test system: OVCAR-8
[39] = test system: PC-3
[40] = test system: RPMI-8226
[41] = test system: RXF 393
[42] = test system: SF-268
[43] = test system: SF-295
[44] = test system: SF-539
[45] = test system: SK-MEL-28
[46] = test system: SK-MEL-2
[47] = test system: SK-MEL-5
[48] = test system: SK-OV-3
[49] = test system: SN12C
[50] = test system: SNB-19
[51] = test system: SNB-75
[52] = test system: SR
[53] = test system: SW-620
[54] = test system: T47D
[55] = test system: TK-10
[56] = test system: U-251
[57] = test system: UACC-257
[58] = test system: UACC-62
[59] = test system: UO-31

COC(=O)c1ccc2c(c1)CCN2C(=O)c1cc2c(cc1Br)OCO2
GI50 [1]: 0.74 µM (active) | GI50 [2]: 1.05 µM (active) | GI50 [3]: 1.74 µM (inactive) | GI50 [4]: 5.19 µM (inactive) | GI50 [5]: 7.18 µM (inactive) | GI50 [6]: 4.7 µM (inactive) | GI50 [7]: 0.404 µM (active) | GI50 [8]: 0.406 µM (active) | GI50 [9]: 1.71 µM (inactive) | GI50 [10]: 4.66 µM (inactive) | GI50 [11]: 0.989 µM (active) | GI50 [12]: 0.228 µM (active) | GI50 [13]: 1.82 µM | GI50 [14]: 0.198 µM (active) | GI50 [15]: 3.87 µM (inactive) | GI50 [16]: 8.69 µM (inactive) | GI50 [17]: 0.373 µM (active) | GI50 [18]: 0.658 µM (active) | GI50 [19]: 0.614 µM (active) | GI50 [20]: 0.19 µM (active) | GI50 [21]: 0.424 µM (active) | GI50 [22]: 3.11 µM (inactive) | GI50 [23]: 0.276 µM (active) | GI50 [24]: 0.251 µM (active) | GI50 [25]: 1.65 µM (inactive) | GI50 [26]: 0.151 µM (active) | GI50 [27]: 0.0834 µM (active) | GI50 [28]: 0.504 µM (active) | GI50 [29]: 0.231 µM (active) | GI50 [30]: 0.277 µM (active) | GI50 [31]: 1.44 µM (inactive) | GI50 [32]: 5.81 µM (inactive) | GI50 [33]: 0.119 µM (active) | GI50 [34]: 0.342 µM (active) | GI50 [35]: 0.313 µM (active) | GI50 [36]: 1.54 µM (inactive) | GI50 [37]: > 50 µM (inactive) | GI50 [38]: 2.11 µM (inactive) | GI50 [39]: 0.573 µM (active) | GI50 [40]: 0.668 µM (active) | GI50 [41]: 0.863 µM (active) | GI50 [42]: 1.8 µM (inactive) | GI50 [43]: 0.565 µM (active) | GI50 [44]: 0.148 µM (active) | GI50 [45]: 11 µM (inactive) | GI50 [46]: 0.723 µM (active) | GI50 [47]: 0.167 µM (active) | GI50 [48]: 3.05 µM (inactive) | GI50 [49]: 1.81 µM (inactive) | GI50 [50]: 0.439 µM (active) | GI50 [51]: 0.484 µM (active) | GI50 [52]: 0.0817 µM (active) | GI50 [53]: 0.822 µM (active) | GI50 [54]: 4.11 µM (inactive) | GI50 [55]: 2 µM (inactive) | GI50 [56]: 0.822 µM (active) | GI50 [57]: 0.305 µM (active) | GI50 [58]: 0.439 µM (active) | GI50 [59]: 2.01 µM (inactive)

CCCCCC(=O)OC[n+]1cccc(-c2c(COC(=O)NC(C)C)c(COC(=O)NC(C)C)c3n2CCC3)c1
GI50 [1]: 30.7 µM (inactive) | GI50 [2]: 15.9 µM (inactive) | GI50 [3]: 70.5 µM (inactive) | GI50 [4]: 23.1 µM (inactive) | GI50 [5]: 38.1 µM (inactive) | GI50 [6]: 10.5 µM (inactive) | GI50 [7]: 6.58 µM (inactive) | GI50 [8]: 62.5 µM (inactive) | GI50 [9]: 35.4 µM (inactive) | GI50 [10]: > 100 µM (inactive) | GI50 [11]: > 100 µM (inactive) | GI50 [12]: 45.3 µM (inactive) | GI50 [13]: 56.1 µM | GI50 [14]: 10.2 µM (inactive) | GI50 [15]: 44.1 µM (inactive) | GI50 [16]: 27.4 µM (inactive) | GI50 [17]: 46.9 µM (inactive) | GI50 [18]: 69.3 µM (inactive) | GI50 [19]: > 34.2 µM (inactive) | GI50 [20]: 37.2 µM (inactive) | GI50 [21]: > 100 µM (inactive) | GI50 [22]: 24 µM (inactive) | GI50 [23]: 52.1 µM (inactive) | GI50 [24]: 31.6 µM (inactive) | GI50 [25]: 60.4 µM (inactive) | GI50 [26]: > 100 µM (inactive) | GI50 [27]: > 100 µM (inactive) | GI50 [28]: 10.4 µM (inactive) | GI50 [29]: 43.2 µM (inactive) | GI50 [30]: > 64.4 µM (inactive) | GI50 [31]: 28.8 µM (inactive) | GI50 [32]: 16.6 µM (inactive) | GI50 [33]: 15.6 µM (inactive) | GI50 [34]: 49.4 µM (inactive) | GI50 [35]: 54.1 µM (inactive) | GI50 [36]: 42.4 µM (inactive) | GI50 [37]: > 63.5 µM (inactive) | GI50 [38]: 20.2 µM (inactive) | GI50 [39]: 44.3 µM (inactive) | GI50 [40]: 32.7 µM (inactive) | GI50 [41]: 26.4 µM (inactive) | GI50 [42]: 28.5 µM (inactive) | GI50 [43]: 59 µM (inactive) | GI50 [44]: 27.9 µM (inactive) | GI50 [45]: > 100 µM (inactive) | GI50 [46]: 26.7 µM (inactive) | GI50 [47]: 40.6 µM (inactive) | GI50 [48]: > 57.3 µM (inactive) | GI50 [49]: 30.6 µM (inactive) | GI50 [50]: 74.3 µM (inactive) | GI50 [51]: 33.7 µM (inactive) | GI50 [52]: 5.78 µM (inactive) | GI50 [53]: 31.7 µM (inactive) | GI50 [54]: > 61.8 µM (inactive) | GI50 [55]: > 84.1 µM (inactive) | GI50 [56]: > 61.5 µM (inactive) | GI50 [57]: > 100 µM (inactive) | GI50 [58]: 23.4 µM (inactive) | GI50 [59]: 33.4 µM (inactive)
